Test results from patent publication US11098041B2 (Merck Patent GmbH, priority 2014, dated 2021).

What was measured:
full-length human BTK = full-length human BTK (Homo sapiens (Human), UniProt Q06187); assay: Assay A: microfluidic off-chip mobility shift assay against BTK enzyme; type: biochemical
[1] = system: IL-1β release by human THP-1 cells; assay: Assay D: THP-1 cells IL-1β release ELISA assay; type: cell-based; conditions: PMA and LPS, BzATP stimulation
Protocol: Assay D: THP-1 Cells IL-1β release ELISA Assay
The assay measures IL-1β release by human THP-1 cells after treatment with PMA and LPS in response to BzATP stimulation in order to evaluate the potency of P2X7 inhibitors. THP-1 cells (2×10^5 cells/mL) in culture medium (RPMI1640 (Gibco, #22400-089)+10% HI-FBS (Gibco, #10082-147)+1% L-Glutamine (Gibco, #25030)+1% Pen/Strep (Gibco, #15140) complemented with 0.5 μM PMA (Sigma, #P8139) were incubated for 30 min at 37° C. At the end of the incubation time, the cells were titrated and washed gently in PBS. The cells were then re-suspended to a density of 1.5×10^5 cell/mL in culture medium complemented with 10 ng/mL LPS (Sigma, #L5293). The cell suspension was dispensed (40 μL/well) into a Corning 384-well plate. After 4 hr of incubation at 37° C., the cells were treated with 20 μL of test compounds at various concentrations. The plate was incubated for 30 min at 37° C. and then the cells were treated with 20 μL of 3.2 mM BzATP (Sigma. #B6396) (0.8 mM final concentration). The plate was incubated for an additional 30 min at 37° C., and then subjected to centrifugation (4 min, 1000 rpm). Supernatant (60 μL) from each well was transferred to a 384-matrix PP plate. The plate was then stored at 4° C. (overnight) or −20° C. for longer term storage. The next day, the […] were measured using a human […] ELISA Kit (R & D systems, catalog #DY201) and read using a SpectraMax Plus 384 Microplate Reader.

[2] = target: BTK C481S (His-TEV-hsBTK(328-659)(C481S)) (Homo sapiens (Human), UniProt Q06187, C481S); assay: Assay B: microfluidic off-chip mobility shift assay against BTK C481S enzyme; type: biochemical; conditions: BTK C481S mutant
Chain of BTK C481S (His-TEV-hsBTK(328-659)(C481S)) (Q06187 328-659 C481S): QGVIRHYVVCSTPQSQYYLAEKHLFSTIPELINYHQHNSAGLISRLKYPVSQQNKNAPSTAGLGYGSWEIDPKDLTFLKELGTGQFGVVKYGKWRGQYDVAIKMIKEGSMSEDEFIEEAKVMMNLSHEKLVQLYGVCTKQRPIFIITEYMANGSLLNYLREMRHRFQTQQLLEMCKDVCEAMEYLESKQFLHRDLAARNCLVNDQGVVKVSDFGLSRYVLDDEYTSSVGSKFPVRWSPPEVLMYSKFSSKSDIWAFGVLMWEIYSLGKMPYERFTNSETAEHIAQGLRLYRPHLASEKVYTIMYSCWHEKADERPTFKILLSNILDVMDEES
Method in brief: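 Substrate-to-phosphopeptide conversion quantified by microfluidic mobility shift with laser-induced fluorescence; IC50 and efficacy from log[inhibitor] vs. % activity.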

[3] = system: anti-IgM-induced expression of CD69 on CD19 positive cells (B cells) in human PBMCs; assay: Assay C: PBMC IC50 assay (anti-IgM-induced CD69 expression); type: cell-based; conditions: anti-IgM stimulation
Method in brief: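 Freshly isolated human PBMCs (2.5×10^5/well) pretreated 1 h with compound, then stimulated overnight (~16-18 h) with goat F(ab′)2 anti-human IgM. CD69 on CD19+ B cells measured by flow cytometry; IC50 from percentage CD69+ B cells versus concentration.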

Chain of full-length human BTK (Q06187 whole entry): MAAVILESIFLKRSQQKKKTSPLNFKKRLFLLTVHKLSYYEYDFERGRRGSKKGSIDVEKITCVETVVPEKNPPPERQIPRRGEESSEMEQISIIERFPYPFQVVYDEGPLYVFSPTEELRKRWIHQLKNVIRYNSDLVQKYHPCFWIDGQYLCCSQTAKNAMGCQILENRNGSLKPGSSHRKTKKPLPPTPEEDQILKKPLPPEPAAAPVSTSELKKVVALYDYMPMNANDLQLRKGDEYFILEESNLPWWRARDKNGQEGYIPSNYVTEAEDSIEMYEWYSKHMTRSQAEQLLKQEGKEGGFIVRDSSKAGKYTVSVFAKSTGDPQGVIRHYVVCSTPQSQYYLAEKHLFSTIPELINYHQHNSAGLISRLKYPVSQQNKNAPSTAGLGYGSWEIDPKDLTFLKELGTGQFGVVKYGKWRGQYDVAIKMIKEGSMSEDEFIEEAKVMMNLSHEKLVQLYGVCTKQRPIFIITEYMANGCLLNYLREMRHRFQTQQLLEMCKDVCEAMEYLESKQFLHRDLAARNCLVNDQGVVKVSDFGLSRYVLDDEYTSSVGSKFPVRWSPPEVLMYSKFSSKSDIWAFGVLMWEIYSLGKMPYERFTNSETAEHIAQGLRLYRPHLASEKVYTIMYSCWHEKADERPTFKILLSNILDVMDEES

Compound | IC50 (full-length human BTK) [nM] | IC50 [1] [nM] | IC50 [2] [nM] | IC50 [3] [nM]
CC(C)(O)CCN1Cc2cc(-c3ccnc4[nH]c(-c5ccc(C(=O)N6CCOCC6)cc5)nc34)ccc2C1=O [Example 114, 2-(3-Hydroxy-3-methyl-butyl)-5-{2-[4-(morpholine-4-carbonyl)-phenyl]-3H-imidazo[4,5-b]pyridin-7-yl}-2,3-dihydro-isoindol-1-one] | > 5000 | 1000 to 5000 | > 5000 | –
Cn1cc(-c2nc3c(-c4cccc(NC(=O)N5CC(OC(C)(C)C)C5)c4CO)ccnc3[nH]2)cn1 [Example 91, 3-(tert-Butoxy)-N-[2-(hydroxymethyl)-3-[2-(1-methyl-1H-pyrazol-4-yl)-3H-imidazo[4,5-b]pyridin-7-yl]phenyl]azetidine-1-carboxamide] | < 100 | – | < 100 | 100 to 1000
Cc1ccc(-n2ccn(-c3cccc(-c4ccnc5[nH]c(-c6ccc(C(=O)N7CCOCC7)cc6)nc45)c3C)c2=O)cc1 [Example 95, 1-[2-Methyl-3-(2-[4-[(morpholin-4-yl)carbonyl]phenyl]-3H-imidazo[4,5-b]pyridin-7-yl)phenyl]-3-(4-methylphenyl)-2,3-dihydro-1H-imidazol-2-one] | 1000 to 5000 | < 100 | 1000 to 5000 | –
Cn1cc(-c2nc3c(-c4ccc(C(C)(C)NC(=O)c5nnc(C(C)(C)C)o5)c(F)c4)ccnc3[nH]2)cn1 [Example 104, 5-tert-Butyl-[1,3,4]oxadiazole-2-carboxylic acid (1-{2-fluoro-4-[2-(1-methyl-1H-pyrazol-4-yl)-3H-imidazo[4,5-b]pyridin-7-yl]-phenyl}-1-methyl-ethyl)-amide] | < 100 | – | < 100 | 1000 to 5000
Cn1cc(-c2nc3c(-c4ccc(C5(NC(=O)c6ccc(C(C)(C)C)cc6)CC5)cc4)ccnc3[nH]2)cn1 [Example 113, 4-tert-Butyl-N-(1-{4-[2-(1-methyl-1H-pyrazol-4-yl)-3H-imidazo[4,5-b]pyridin-7-yl]-phenyl}-cyclopropyl)-benzamide] | < 100 | – | < 100 | 100 to 1000
Cc1cc(-c2ccnc3[nH]c(-c4cnn(C)c4)nc23)ccc1CNC(=O)c1nnc(C(C)(C)C)o1 [Example 103, 5-tert-Butyl-[1,3,4]oxadiazole-2-carboxylic acid 2-methyl-4-[2-(1-methyl-1H-pyrazol-4-yl)-3H-imidazo[4,5-b]pyridin-7-yl]-benzylamide] | < 100 | – | < 100 | < 100
CN(C)c1ccc(-c2nc3c(-c4cccc(N5CCOc6cc(C7CC7)cc(F)c6C5=O)c4CO)ccnc3[nH]2)cc1 [Example 39, 8-Cyclopropyl-4-(3-[2-[4-(dimethylamino)phenyl]-3H-imidazo[4,5-b]pyridin-7-yl]-2-(hydroxymethyl)phenyl)-6-fluoro-2,3,4,5-tetrahydro-1,4-benzoxazepin-5-one] | < 100 | – | < 100 | 1000 to 5000
COc1ccc(-c2nc3c(-c4ccc(CN5CCOc6cc(C7CC7)cc(F)c6C5=O)c(F)c4)ccnc3[nH]2)nc1 [Example 40, 8-Cyclopropyl-6-fluoro-4-([2-fluoro-4-[2-(5-methoxypyridin-2-yl)-3H-imidazo[4,5-b]pyridin-7-yl]phenyl]methyl)-2,3,4,5-tetrahydro-1,4-benzoxazepin-5-one] | < 100 | – | < 100 | 100 to 1000
Cn1cc(-c2nc3c(-c4ccc(CNC(=O)c5nnc(C(C)(C)C)o5)c(F)c4)ccnc3[nH]2)cn1 [Example 111, 5-tert-Butyl-[1,3,4]oxadiazole-2-carboxylic acid 2-fluoro-4-[2-(1-methyl-1H-pyrazol-4-yl)-3H-imidazo[4,5-b]pyridin-7-yl]-benzylamide] | < 100 | – | < 100 | 100 to 1000
Cn1cc(-c2nc3c(-c4ccc(C5(NC(=O)N6CC(OC(C)(C)C)C6)CC5)c(F)c4)ccnc3[nH]2)cn1 [Example 52, 3-(tert-Butoxy)-N-(1-[2-fluoro-4-[2-(1-methyl-1H-pyrazol-4-yl)-3H-imidazo[4,5-b]pyridin-7-yl]phenyl]cyclopropyl)azetidine-1-carboxamide] | < 100 | – | < 100 | 100 to 1000
Cn1cc(-c2nc3c(-c4cc(F)cc(N5CCOc6cc(C7CC7)cc(F)c6C5=O)c4CO)ccnc3[nH]2)cn1 [Example 37, 8-Cyclopropyl-6-fluoro-4-[5-fluoro-2-(hydroxymethyl)-3-[2-(1-methyl-1H-pyrazol-4-yl)-3H-imidazo [4,5-b]pyridin-7-yl]phenyl]-2,3,4,5-tetrahydro-1,4-benzoxazepin-5-one] | < 100 | – | < 100 | 100 to 1000
Cn1cc(-c2nc3c(-c4ccc(C5(NC(=O)c6noc(C(C)(C)C)n6)CC5)cc4)ccnc3[nH]2)cn1 [Example 53, 5-tert-Butyl-N-(1-[4-[2-(1-methyl-1H-pyrazol-4-yl)-3H-imidazo[4,5-b]pyridin-7-yl]phenyl]cyclopropyl)-1,2,4-oxadiazole-3-carboxamide] | < 100 | – | < 100 | < 100
Cn1cc(-c2nc3c(-c4ccnc(N5CCn6c(cc7c6CC(C)(C)C7)C5=O)c4CO)ccnc3[nH]2)cn1 [Example 11, 2-(3-(hydroxymethyl)-4-(2-(1-methyl-1H-pyrazol-4-yl)-3H-imidazo[4,5-b]pyridin-7-yl)pyridin-2-yl)-7,7-dimethyl-2,3,4,6,7,8-hexahydro-1H-cyclopenta[4,5]pyrrolo[1,2-a]pyrazin-1-one] | < 100 | – | < 100 | 100 to 1000

Now from value to compound, other results behind:

IC50 (full-length human BTK) [nM] | IC50 [1] [nM] | IC50 [2] [nM] | Compound | IC50 [3] [nM]
< 100 | – | < 100 | CN(C)c1ccc(-c2nc3c(-c4ccc(CNC(=O)c5noc(C(C)(C)C)n5)c(F)c4)ccnc3[nH]2)cc1 [Example 145, 5-(tert-butyl)-N-(4-(2-(4-(dimethylamino)phenyl)-3H-imidazo[4,5-b]pyridin-7-yl)-2-fluorobenzyl)-1,2,4-oxadiazole-3-carboxamide] | < 100
< 100 | – | < 100 | CN1CCN(Cc2ccc(-c3nc4c(-c5cccc(N6CCOc7cc(C8CC8)cc(F)c7C6=O)c5CO)ccnc4[nH]3)nc2)CC1 [Example 35, 8-Cyclopropyl-6-fluoro-4-[2-(hydroxymethyl)-3-(2-[5-[(4-methylpiperazin-1-yl)methyl]pyridin-2-yl]-3H-imidazo[4,5-b]pyridin-7-yl)phenyl]-2,3,4,5-tetrahydro-1,4-benzoxazepin-5-one] | 100 to 1000
< 100 | – | < 100 | CC(C)(C)c1nc(C(=O)NCc2ccc(-c3ccnc4[nH]c(-c5ccc(N6CCCCC6)cn5)nc34)cc2F)no1 [Example 83, 5-tert-Butyl-N-[(2-fluoro-4-[2-[5-(piperidin-1-yl)pyridin-2-yl]-3H-imidazo[4,5-b]pyridin-7-yl]phenyl)methyl]-1,2,4-oxadiazole-3-carboxamide] | < 100
< 100 | – | < 100 | Cn1cc(-c2nc3c(-c4ccc(CNC(=O)c5ccc(C6CC6)nc5)c(F)c4)ccnc3[nH]2)cn1 [Example 56, 6-Cyclopropyl-N-([2-fluoro-4-[2-(1-methyl-1H-pyrazol-4-yl)-3H-imidazo[4,5-b]pyridin-7-yl]phenyl]methyl)pyridine-3-carboxamide] | 1000 to 5000
< 100 | – | < 100 | Cn1cc(-c2nc3nccc(-c4cccc(N5CCOc6cc(C7CC7)cc(F)c6C5=O)c4CO)c3[nH]2)cn1 [Example 42, 8-Cyclopropyl-6-fluoro-4-[2-(hydroxymethyl)-3-[2-(1-methyl-1H-pyrazol-4-yl)-1H-imidazo[4,5-b]pyridine-7-yl]phenyl]-2,3,4,5-tetrahydro-1,4-benzoxazepin-5-one] | 100 to 1000
< 100 | – | < 100 | CC(C)(C)c1nc(C(=O)NCc2ccc(-c3ccnc4[nH]c(-c5cccc(OC(F)(F)F)c5)nc34)cc2F)no1 [Example 74, 5-tert-Butyl-N-[(2-fluoro-4-[2-[3-(trifluoromethoxy)phenyl]-3H-imidazo[4,5-b]pyridin-7-yl]phenyl)methyl]-1,2,4-oxadiazole-3-carboxamide; trifluoroacetic acid] | 100 to 1000
< 100 | – | 100 to 1000 | Cn1cc(-c2nc3c(-c4ccc(C(C)(C)NC(=O)c5ccc(C(C)(C)C)cc5)c(F)c4)ccnc3[nH]2)cn1 [Example 106, 4-tert-Butyl-N-(1-{2-fluoro-4-[2-(1-methyl-1H-pyrazol-4-yl)-3H-imidazo[4,5-b]pyridin-7-yl]-phenyl}-1-methyl-ethyl)-benzamide] | 100 to 1000
